PMC12654037, “Norditerpene Natural Products from Subterranean Fungi with Anti-Parasitic Activity” (Microorganisms, 2025)

Tests used:
[1] = system: C. parvum intracellular stages; test: C. parvum immunofluorescence assay; assay type: cell-based, Cryptosporidium parvum; conditions: 7.5 µM, 20 h
Description: C. parvum and T. gondii immunofluorescence assays (IFAs): IFAs were conducted as previously described with modifications. For C. parvum IFAs, HCT-8 cells were seeded on 4-well chamber cell culture glass slides (CELLTREAT Scientific Product, Pepperell, MA, USA). At confluency, the cell monolayers were infected with 5 × 10^5 wild-type (WT) C. parvum oocysts prepared as previously described. Slides were spun at 1000 rpm for 3 min to allow oocysts to have full contact with the cell monolayers. At 4 hpi, 7.5 µM oidiolactone A or DMSO control, diluted in medium containing 0.6% taurocholic acid, was added to the infected cells for 20 h. At 24 hpi, the slides were fixed with 4% paraformaldehyde and permeabilized with 0.25% Triton-X. The slides were then blocked with 10% goat serum in 1x PBS. C. parvum intracellular stages were visualized with Sporo-glo (Waterborne inc., New Orleans, LA, USA). The slides were mounted using VECTASHIELD® PLUS Antifade Mounting Medium with DAPI (Vector Laboratories, Inc., Newark CA, USA). Representative images of the samples were taken using the Nikon AX R confocal microscope and Nikon Elements acquisition software. Image processing was performed using Fiji v1.54p.

[2] = system: C. parvum asexual and sexual stages; test: C. parvum asexual/sexual stage assay (4 h treatment windows); assay type: cell-based, Cryptosporidium parvum
Description: To determine -static versus -cidal activity, the infection assay was conducted as described, but infected cells were treated with compounds for 30 min up to 24 h. The compounds were removed after the designated times, and infection was quantified at 72 h post-infection. To determine the activity of the compounds against asexual and sexual stages of the parasite, compounds were added for 4 h windows at times corresponding to asexual or sexual development. Parasite proliferation was then determined at 72 h post-infection. For all assays, each sample was run in triplicate, and three biological replicates were performed.

[3] = system: T. gondii intracellular stages; test: T. gondii immunofluorescence assay; assay type: cell-based, Toxoplasma gondii; conditions: 7.5 µM, 24 h
Description: For T. gondii IFAs, confluent HFF cells in 4-well chamber cell culture glass slides were infected with either 5 × 10^4 or 1 × 10^5 parasites/mL. At 6 hpi, 7.5 µM oidiolactone A or DMSO control was diluted in culture medium and added to the slides for 24 h. The slides were then fixed with 4% paraformaldehyde and permeabilized with 0.25% Triton-X. The slides were blocked with 3% goat serum in 0.25% Triton-X. The parasites were visualized with anti-T. gondii SAG1 and Alexa Fluor 594 goat anti-rabbit antibody. The slides were mounted, and images were acquired as described above and processed with NIS Elements GA3 (general analysis 3).

[4] = Serum biochemical analysis of infected and treated IFNγ −/− mice; assay type: in vivo, C57BL/6 IFNγ −/− mice
Description: Inhibition of C. parvum infection in IFN-gamma knock-out (IFNγ −/−) mice: Twelve female C57BL/6 IFNγ −/− mice (4 weeks old) from the Jackson Laboratory were housed in a controlled environment with a 12 h light/dark cycle and access to food and water ad libitum. Cp-NLuc oocysts were isolated from infected mouse feces and purified using a sodium chloride density gradient. Mice were inoculated via oral gavage with a suspension of 10^4 oocysts in 50 µL sterile PBS. On days 5 and 6 post-infection, mice were treated with 4 mg/kg of oidiolactone A or DMSO vehicle control every 12 h for a total of four doses (6 mice per treatment group). Fecal samples were collected daily and stored at −20 °C until analysis. Feces were homogenized in a lysis buffer solution, centrifuged, and the supernatant was incubated with Nano-Glo® substrate in a 96-well plate, as previously described. Luminescence was measured in a microplate reader immediately after substrate addition. Oocyst shedding, measured in RLUs/gram of feces, was plotted over time, and the area under the curve was determined for each mouse. Mice were sacrificed 14 days post-infection, and serum was collected for biochemical analysis. Biochemical analyses were performed using the Beckman Coulter AU480 automated analyzer (Beckman Coulter, Brea, CA, USA) at the Clinical Pathology Laboratory, Veterinary Medical Center, University of Minnesota.

[5] = PAMPA membrane permeability assay; assay type: in vitro ADME
Description: PAMPA membrane permeability assay. The membrane permeability of selected compounds was evaluated using the Corning® BioCoat^TM Pre-coated PAMPA Plate System (catalog. No. 353015, Corning, Glendale, AZ, USA). The pre-coated plate assembly, which was stored at −20 °C, was thawed for 30 min at room temperature. The permeability assay was carried out in accordance with the manufacturer’s protocol. Briefly, the 96-well filter plate, pre-coated with lipids, was used as the permeation acceptor and a matching 96-well receiver plate was used as the permeation donor. […] At the end of the incubation, the plate was separated, and the final concentrations of compounds in both donor wells and acceptor wells were analyzed using LC-MS/MS. Permeability of the compounds was calculated using Equation (1): Pe = {−ln [1 − CA(t)/Ceq]}/[A × (1/VD + 1/VA) × t](1) where A = filter area (0.3 cm^2), VD = donor well volume (0.3 mL), VA = acceptor well volume (0.2 mL), t = incubation time (seconds), CA(t) = compound concentration in acceptor well at time t, and CD(t) = compound concentration in donor well at time t. Ceq was calculated using Equation (2): Ceq = [CD(t) × VD + CA(t) × VA]/(VD + VA)(2) […]

With `CO[C@H]1OC(=O)C=C2[C@@]13O[C@@H]3[C@H]1OC(=O)[C@@]3(C)CCC[C@@]2(C)[C@@H]13` [compound 1, oidiolactone A] the “abundance of treated C. parvum parasites by IFA” value [1] was “much lower abundances”, the “activity against gamete stages” value ([2]; 7.5 μM, 4 h intervals) was “no activity” and the inhibition at 7.5 µM ([2]; Cryptosporidium parvum, 4 h intervals post-infection, read 72 h, read-out: inhibition of parasites in asexual stage and transition to sexual stages) was 20 to 75%. The “abundance of treated T. gondii parasites by IFA” value [3] was “much lower abundances”, the “signs of acute toxicity (liver, renal, metabolic, cardiac functions, protein status, electrolytes vs control)” value ([4]; 4 mg/kg x 4 doses, serum day 14) was “no statistically significant differences” and the “LIH (sum of lipemia, icterus, and hemolysis scores per mouse)” value ([4]; serum, mean ± SD) was 1.5 ± 0.71. For the same molecule, the ALP ([4]; serum, mean ± SD of two mice) was 182.00 ± 15.56 U/L, the ALT ([4]; serum, mean ± SD of two mice) was 37.50 ± 6.36 U/L and the AST ([4]; serum, mean ± SD of two mice) was 229.50 ± 31.82 U/L. The Alb ([4]; serum, mean ± SD of two mice) was 3.30 ± 0.14 g/dL, the Amy ([4]; serum, mean ± SD of two mice) was 456.00 ± 80.61 U/L and the “An Gap (calc.)” value ([4]; serum, mean ± SD of two mice) was 27.00 ± 1.41. It also gave a BUN ([4]; serum, mean ± SD of two mice) of 21.50 ± 4.95 mg/dL, a CK ([4]; serum, mean ± SD of two mice) of 1618.00 ± 376.18 U/L and a Ca ([4]; serum, mean ± SD of two mice) of 10.55 ± 0.07 mg/dL. For the same molecule, the Chol ([4]; serum, mean ± SD of two mice) was 92.50 ± 7.78 mg/dL, the Creat ([4]; serum, mean ± SD of two mice) was 0.00 ± 0.00 mg/dL and the GGT ([4]; serum, mean ± SD of two mice) was 0.00 ± 0.00 U/L. The “Glob (calc.)” value ([4]; serum, mean ± SD of two mice) was 1.55 ± 0.07 g/dL, the Gluc ([4]; serum, mean ± SD of two mice) was 280.00 ± 15.56 mg/dL and the HCO3 ([4]; serum, mean ± SD of two mice) was 14.85 ± 1.48 mmol/L. For the same molecule, the K ([4]; serum, mean ± SD of two mice) was 5.15 ± 0.07 mmol/L, the Mg ([4]; serum, mean ± SD of two mice) was 2.75 ± 0.07 mg/dL and the Na ([4]; serum, mean ± SD of two mice) was 149.50 ± 0.71 mmol/L. For the same molecule, the “Osmol (calc.)” value ([4]; serum, mean ± SD of two mice) was 310.00 ± 1.41, the Phos ([4]; serum, mean ± SD of two mice) was 10.25 ± 0.35 mg/dL and the “T. Bili” value ([4]; serum, mean ± SD of two mice) was 0.10 ± 0.00 mg/dL. The TP ([4]; serum, mean ± SD of two mice) was 4.85 ± 0.21 g/dL, the Papp at 5 h, 100 μmol/L ([5]; PAMPA, 25 °C, 5 h, 100 μmol/L, read-out: PAMPA Pe) was 11 ± 1.3 ×10⁻⁶ cm/s and the PAMPA permeability class ([5]; cutoff Pe 1.5 × 10^−6 cm/s) was “high passive permeability”.
